In experiment [1] the test system is leucine transporter (LeuT). The experiment is described as follows: Structural stability of LeuT, [3H]-Leu binding by scintillation proximity assay (SPA). The class given is biochemical, Aquifex aeolicus. Conditions: CMC+0.04% or CMC+0.2% by weight; room temperature; 12 days incubation. The protocol:
An experiment for measuring structural stability of a LeuT protein by BTMs in an aqueous solution was performed. Each amphiphilic compound was used at a concentration of (a) CMC+0.04% by weight or (b) CMC+0.2% by weight, and the ligand-binding characteristics of LeuT were determined through a scintillation proximity assay (SPA) using [^3H]-Leu. The measurement was performed at room temperature at regular intervals during an incubation period of 12 days.
Specifically, thermophilic bacteria (Aquifex aeolicus)-derived wild-type leucine transporter (LeuT) were purified using the method as described above (G. Deckert, et al., Nature 1998, 392, 353-358). LeuT was expressed in E. coli C41 (DE3) transformed with pET16b encoding a C-terminal 8×His-tagged transporter (an expression plasmid was provided from Dr. E. Gouaux, Vollum Institute, Portland, Oreg., USA). […] Protein samples were stored at room temperature for 12 days, and centrifuged for a given time, and the characteristics of the proteins were determined by measuring a [^3H]-leucine binding ability using SPA. […] The entire [^3H]-leucine binding affinity to each sample was measured using a MicroBeta liquid scintillation counter (PerkinElmer).
Background: Scintillation proximity formats need no separation of bound from free tracer.

For experiment [2], the target named is T1, melibiose permease (MelB) (Salmonella typhimurium, UniProt P30878).
T1 construct: made in house; host or cells: E. coli DW2
T1 sequence (P30878 whole entry): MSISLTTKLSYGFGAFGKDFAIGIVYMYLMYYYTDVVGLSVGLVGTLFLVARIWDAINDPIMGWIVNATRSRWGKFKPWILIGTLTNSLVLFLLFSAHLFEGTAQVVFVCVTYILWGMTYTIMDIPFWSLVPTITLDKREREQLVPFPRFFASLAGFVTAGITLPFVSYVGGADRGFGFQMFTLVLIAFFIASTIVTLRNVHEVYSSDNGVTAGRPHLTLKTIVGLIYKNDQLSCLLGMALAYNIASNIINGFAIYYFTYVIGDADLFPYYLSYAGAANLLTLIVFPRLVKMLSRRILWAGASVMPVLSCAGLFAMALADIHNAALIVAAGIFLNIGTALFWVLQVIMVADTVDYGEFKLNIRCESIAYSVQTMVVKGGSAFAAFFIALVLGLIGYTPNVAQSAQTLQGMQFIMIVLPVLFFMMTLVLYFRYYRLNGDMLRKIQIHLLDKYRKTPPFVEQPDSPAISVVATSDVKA
The experiment can be described thus: MelB extraction and thermostability, SDS-PAGE and Western Blotting of the dissolved protein. Particulars: 90 minutes, detergent 1.5% by weight. The protocol: The MelB protein was extracted from a membrane using BTM-C11s or DDM, and the amount and structure of the extracted protein were analyzed through SDS-PAGE and Western Blotting. A concentration of the amphiphilic compound used was 1.5% by weight, and the protein was extracted at four temperatures (0, 45, 55, and 65° C.), and incubated at the same temperature for 90 minutes. Thereafter, an amount of the protein remaining dissolved in an aqueous solution was measured to evaluate two types of performance: protein extraction efficiency and stabilization ability of the compound. The amount of the protein extracted and stabilized with each of the amphiphilic molecules is expressed as a relative value (%) of the entire amount of proteins contained in a membrane sample which is not treated with the amphiphilic molecules.
Specifically, Salmonella typhimurium melibiose permease (MelBSt) having a 10-His tag at the C-terminus thereof was expressed in E. coli DW2 cells (AmelB and AlacZY) using a plasmid pK95ΔAHB/WT MelBSt/CH10. Cell growth and membrane preparation were performed according to the method disclosed in the article by A. S. Ethayathulla et al. (Nat. Commun. 2014, 5, 3009). A protein assay was performed using a Micro BCA kit (Thermo Scientific, Rockford, Ill.). An effect of the isomers (A-BTM-C11, B-BTM-C11, and M-BTM-C11) of the BTM-C11s or DDM on the MelBSt stability was evaluated using the protocol disclosed in P. S. Chae et al. (Nat. Methods 2010, 7, 1003-1008). A membrane sample (having a final protein concentration of 10 mg/mL) containing MelBSt was incubated at four temperatures (0, 45, 55, and 65° C.) for 90 minutes in a solubilizing buffer (20 mM sodium phosphate, pH 7.5, 200 mM NaCl, 10% glycerol, and 20 mM melibiose) containing 1.5% (w/v) DDM or the BTM-C11 isomers. To remove insoluble matter, the sample was ultracentrifuged at 355,590 g at 4° C. for 45 minutes using a Beckman Optima™ MAX ultracentrifuge equipped with a TLA-100 rotor. The dissolved fraction was separated by 16% SDS-PAGE, and then immunoblotted with a Penta-His-HRP antibody (Qiagen, Germantown, Md.). The membrane fraction containing 20 μg of untreated proteins was used to represent the entire MelB, and the treated samples were loaded in each well at the same volume. MelBSt was measured by an ImageQuant LAS 4000 Biomolecular imager (GE Health Care Life Sciences) using a SuperSignal West Pico chemiluminescent substrate.
Background: In western blotting, separated proteins are transferred to a membrane and probed.

The source of these data is patent US11198704B2, “Butane-tetraol-based amphiphiles and uses thereof” (Industry-University Cooperation Foundation Hanyang …, priority 2016, dated 2021).

Molecules are shown by their SMILES.

As to `CCCCCCCCCCCCO[C@@H]1O[C@H](CO)[C@@H](O[C@H]2O[C@H](CO)[C@@H](O)[C@H](O)[C@H]2O)[C@H](O)[C@H]1O` [DDM, n-dodecyl-β-D-maltopyranoside, reference compound], in experiment [1], the “maintenance of ligand-binding characteristics of LeuT” value is “continuous structural collapse of the solubilized transporter”. Further, the “MelB protein extraction efficiency / dissolved MelB” value in experiment [2] (0° C.) is given as “high MelB protein extraction efficiency”. The “amount of MelB protein remaining dissolved in aqueous solution” value in experiment [2] (55° C.) is recorded as “approximately 15%”. Moreover, the “amount of dissolved MelB” value in experiment [2] (65° C.) is listed as “very small amount of the protein remained”.
